Measured values from patent publication US3937801A, “Reducing the incidence of gastrointestinal side effects during the treatment of inflammatory conditions with antiinflammatory drugs” (priority 1973, dated 1976).
Several values for one entry are separate records, joined by “and”; a condition that tells them apart may be missing. Identical values can stand only once. Like-named read-outs stand apart in the source and are kept apart here.

Tests used:
diarrhea = diarrhea in female mice or rats, peroral; assay type: in vivo, mouse; details: 60 minutes; for diarrheal effect: female mice, 240 mg/kg peroral
[1] = tested on: indomethacin-induced ulcers; test: indomethacin-induced ulcer formation in rats (procedure of Lee et al.); assay type: in vivo, rat; details: for Relative Potency ± S.E.M.: relative to 2-(3-hydroxy-3-methyloctyl)-5-oxocyclopentaneheptanoic acid, procedure of Example 1; for ED50: po
Description: The gastrointestinal side effect inhibiting property of the compositions of the present invention are demonstrable in standard pharmacological tests. For example, in procedures similar to the in vivo test described by Y. H. Lee et al., cited above, for evaluating the effects of a test compound on indomethacin-induced ulcers in the rat, the compounds of formula 1 are shown to be effective, see Examples 1 and 2.
By following the procedure of Lee et al., cited above, for the production of the indomethacin-induced ulcer in rats, the property of the compounds of formula 1 to inhibit such ulcers is readily demonstrable. More specifically: male albino rats (170 - 190 g; Sprague-Dawley strain, Canadian Breeding Laboratories), caged individually, were fasted 24 hr with free access to water until the start of the experiment. Indomethacin was given intraperitoneally. The animals were killed 5 hr later and the ulcer formation in the glandular portion of the stomach determined. The compound of formula 1 was administered perorally immediately after the indomethacin. The percent inhibition of ulcer formation versus the semilogarithm of the dose (mg/kg) was plotted and the dose at which 50% inhibition occurred (ED50) was read from the graph.
Analysis of variance and regression study were used in the evaluation of the data.
Indomethacin was administered (0.5 ml) as an aqueous suspension (2 drops of polysorbate 80 per 14 ml of H2 O). Polysorbate 80 is a mixture of sorbitol and its anhydrides copolymerized with ethylene oxide. The compounds of formula 1 were given (0.2 ml) in a 0.2% sodium carboxymethyl cellulose aqueous suspension.
The results of such a test for 2-(3-hydroxy-3-methyloctyl)-5-oxocyclopentaneheptanoic acid to inhibit the ulcer formation induced by 20 mg/kg i.p. of indomethacin are given in the following table. For comparative purposes the results obtained for propantheline bromide are also included.
By following the procedure of Example 1 the effects of compounds of formula 1 other than 2-(3-hydroxy-3-methyloctyl)-5-oxocyclopentaneheptanoic acid on indomethacin-induced ulcers are demonstrable. Accordingly, the results obtained with such other compounds of formula 1 are exemplified by the following list in which the relative potency of each compound with respect to 2-(3-hydroxy-3-methyloctyl)-5-oxocyclopentaneheptanoic acid is noted.

[2] = tested on: indomethacin-induced ulcers; details: cited from earlier work
ulcers = details: man; N.O. Rothermich 1966; cited from earlier work
gastric acid secretion [3] = test: inhibition of gastric acid secretion in the rat (method of Lippmann); assay type: in vivo; details: unit inferred, read-out: Ed50 for inhibiting gastric acid secretion
Method: A comparison of the ED50 for inhibiting indomethacin-induced ulcers and the ED50 for inhibiting gastric acid secretion for compounds of formula 1 is exemplified in the following list. Both ED50 's are determined in the rat. The ED50 for inhibiting indomethacin-induced ulcers is obtained according to the method of Example 1. The ED50 for inhibiting gastric acid secretion is obtained according to the method of Lippmann, cited above.

[4] = tested on: phenylbutazone-induced ulcers; test: phenylbutazone-induced ulcer formation in rats; assay type: in vivo, rat; details: for % Inhibition of ulcer formation / Ulcers Formed, Mean ± S.E.M.: phenylbutazone 300 mg/kg p.o., 18 hr
[5] = cited from earlier work; for stability: natural prostaglandins, T.O. Oesterling et al.
gastric acid secretion [6] = details: W. Lippmann 1971; cited from earlier work
diarrheal effect = details: larger doses; Misiewicz et al. 1969; cited from earlier work
[7] = 5 h, rat, method of Example 1 (dose in mg/kg there), unit inferred, read-out: ED50 for inhibiting indomethacin-induced ulcer
[8] = Rattus norvegicus, indomethacin 20 mg/kg i.p., 5 hr, read-out: ED50 (dose at which 50% inhibition of ulcer formation occurred)

Molecule: CCCCCC(C)(O)CCC1CCC(=O)C1CCCCCCC(=O)O (single isomer, unassigned; (-)) [(-)-2-(3-Hydroxy-3-methyloctyl)-5-oxocyclopentaneheptanoic a] [(-)-2-(3-Hydroxy-3-methyloctyl)-5-oxocyclopentaneheptanoic acid]
- diarrheal effect (diarrhea): do not cause an appreciable diarrheal effect
- ED50 for inhibiting indomethacin-induced ulcer ([1]; rat, method of Example 1 (dose in mg/kg there), unit inferred, 300 min): 0.11 mg/kg
- Relative Potency ± S.E.M. [1]: 1.01 ± 0.40

Molecule: CCCCCC(O)CC[C@@H]1CCC(=O)[C@H]1CCCCCCC(=O)O (relative stereo) [trans-2-(3-Hydroxyoctyl)-5-oxocyclopentaneheptanoic acid]
- Relative Potency ± S.E.M. [1]: 0.45 ± 0.12 and 0.64 ± 0.20

Molecule: O=C(O)CCCCCC[C@@H]1C(=O)CC[C@H]1C=CC(O)CC1CCCCC1 (relative stereo) [trans-2-(4-Cyclohexyl-3-hydroxy-1-butenyl)-5-oxocyclopentaneheptanoic acid]
- Relative Potency ± S.E.M. [1]: 0.13 ± 0.06

Molecule: COc1ccc2c(c1)c(CC(=O)O)c(C)n2C(=O)c1ccc(Cl)cc1 [indomethacin]
- correlation between dosage and occurrence of ulcers ([2]; rat, Lee et al.): found a similar correlation in the rat
- correlation between dosage and occurrence of ulcers (ulcers): found a correlation between indomethacin dosage and the occurence of ulcers in man

Molecule: CCCCCC(C)(O)CCC1CCC(=O)C1CCCCCCC(=O)O (single isomer, unassigned; (+)) [(+)-2-(3-Hydroxy-3-methyloctyl)-5-oxocyclopentaneheptanoic acid]
- ED50 [1, 7]: 0.11 mg/kg

Molecule: CCCCC(C)(C)C(O)C=C[C@@H]1CCC(=O)[C@H]1C/C=C\CCCC(=O)O (relative stereo) [trans,cis-7-[2-(3-Hydroxy-4,4-dimethyl-1-octenyl)-5-oxocyclopentyl]-5-heptenoic acid]
- ED50 [1, 7]: ~0.02 mg/kg
- Relative Potency ± S.E.M. [1]: 4.8
- ED50 (gastric acid secretion [3]): ~1 mg/kg

Molecule: CCCCCC(O)C=C[C@@H]1CCC(=O)[C@H]1CCCCCCC(=O)O (relative stereo) [trans-2-(3-Hydroxy-1-octenyl)-5-oxocyclopentaneheptanoic acid]
- Relative Potency ± S.E.M. [1]: 0.74 ± 0.20

Molecule: CCCCCC(C)(O)C=C[C@@H]1CCC(=O)[C@H]1CCCCCCC(=O)O (relative stereo) [trans-2-(3-Hydroxy-3-methyl-1-octenyl)-5-oxocyclopentaneheptanoic acid]
- Relative Potency ± S.E.M. [1]: 1.07 ± 0.33

Molecule: CC(C)[N+](C)(CCOC(=O)C1c2ccccc2Oc2ccccc21)C(C)C [propantheline bromide, reference compound]
- reduction of the ulcerogenic activity of indomethacin ([2]; rats, Lee et al. 1971, dose relative to usual therapeutic dose): proved to be effective but only when administered at does much higher than their usual therapeutic dose
- % Inhibition of ulcer formation ([1]; 1.5 mg/kg p.o., indomethacin 20 mg/kg i.p., 5 hr): 36%
- Ulcers Formed, Mean ± S.E.M. ([1]; 1.5 mg/kg p.o., indomethacin 20 mg/kg i.p., 5 hr, n=9, P < 0.05): 6.9 ± 0.9
- % Inhibition of ulcer formation ([1]; 3.0 mg/kg p.o., indomethacin 20 mg/kg i.p., 5 hr): 52%
- Ulcers Formed, Mean ± S.E.M. ([1]; 3.0 mg/kg p.o., indomethacin 20 mg/kg i.p., 5 hr, n=9, P < 0.01): 5.0 ± 1.0
- % Inhibition of ulcer formation ([1]; 6.0 mg/kg p.o., indomethacin 20 mg/kg i.p., 5 hr): 61%
- Ulcers Formed, Mean ± S.E.M. ([1]; 6.0 mg/kg p.o., indomethacin 20 mg/kg i.p., 5 hr, n=8, P < 0.01): 4.1 ± 0.9
- times less potent than 2-(3-hydroxy-3-methyloctyl)-5-oxocyclopentaneheptanoic acid ([1]; ED50 comparison, p.o., indomethacin-induced ulcers): 27 times
- ED50 [1, 8]: 3 mg/kg

Molecule: CCCCCC(C)(O)CCC1CCC(=O)C1CCCCCCC(=O)O (stereo not shown) [2-(3-hydroxy-3-methyloctyl)-5-oxocyclopentaneheptanoic acid]
- diarrheal effect (diarrhea): do not cause an appreciable diarrheal effect
- % Inhibition of ulcer formation ([4]; 7.5 mg/kg p.o.): 24%
- Ulcers Formed, Mean ± S.E.M. ([4]; 7.5 mg/kg p.o., n=10): 4.1 ± 1.0
- % Inhibition of ulcer formation ([4]; 15 mg/kg p.o.): 48%
- Ulcers Formed, Mean ± S.E.M. ([4]; 15 mg/kg p.o., n=9): 2.8 ± 0.6
- % Inhibition of ulcer formation ([4]; 30 mg/kg p.o.): 78%
- Ulcers Formed, Mean ± S.E.M. ([4]; 30 mg/kg p.o., n=9): 1.2 ± 0.5
- ED50 ([4]; Rattus norvegicus, po, over an 18 hr period): ~15 mg/kg
- % Inhibition of ulcer formation ([1]; 0.075 mg/kg p.o., indomethacin 20 mg/kg i.p., 5 hr): 43%
- Ulcers Formed, Mean ± S.E.M. ([1]; 0.075 mg/kg p.o., indomethacin 20 mg/kg i.p., 5 hr, n=9, P < 0.01): 5.9 ± 0.8
- % Inhibition of ulcer formation ([1]; 0.15 mg/kg p.o., indomethacin 20 mg/kg i.p., 5 hr): 56%
- Ulcers Formed, Mean ± S.E.M. ([1]; 0.15 mg/kg p.o., indomethacin 20 mg/kg i.p., 5 hr, n=9, P < 0.01): 4.6 ± 0.6
- % Inhibition of ulcer formation ([1]; 0.30 mg/kg p.o., indomethacin 20 mg/kg i.p., 5 hr): 69%
- Ulcers Formed, Mean ± S.E.M. ([1]; 0.30 mg/kg p.o., indomethacin 20 mg/kg i.p., 5 hr, n=9, P < 0.001): 3.2 ± 0.5
- ED50 [1, 8]: 0.11 mg/kg
- ED50 [1, 7]: 0.11 mg/kg
- ED50 (gastric acid secretion [3]): 4.3 mg/kg

Molecule: CCCCC[C@H](O)/C=C/[C@H]1[C@H](O)CC(=O)[C@@H]1C/C=C\CCCC(=O)O [prostaglandin E2]
- test animals with diarrhea (diarrhea; 43 mg/kg peroral): 50%
- stability [5]: relatively unstable
- dehydration of the 11-hydroxy group ([5]; under both basic and acidic conditions): participates readily in dehydration reactions under both basic and acidic conditions

Molecule: CCCCC[C@H](O)/C=C/[C@@H]1[C@@H](CCCCCCC(=O)O)[C@@H](O)C[C@H]1O [PGF1α]
- stability [5]: relatively unstable

Molecule: CCCCC[C@H](O)/C=C/[C@H]1[C@H](O)CC(=O)[C@@H]1CCCCCCC(=O)O [prostaglandin E1]
- effect on gastric acid secretion (gastric acid secretion [6]): inhibit gastric acid secretion
- diarrheal effect (diarrheal effect): diarrheal effect associated with larger doses

Molecule: CCCCCC(C)(O)CCC1CCC(=O)C1CCCCCCC(=O)O (single isomer, unassigned; (+)) [(+)-2-(3-Hydroxy-3-methyloctyl)-5-oxocyclopentaneheptanoic a] [(+)-2-(3-Hydroxy-3-methyloctyl)-5-oxocyclopentaneheptanoic acid]
- diarrheal effect (diarrhea): do not cause an appreciable diarrheal effect
- Relative Potency ± S.E.M. [1]: 1.02 ± 0.42

Molecule: CCCCCC(O)C=C[C@@H]1CCC(=O)[C@H]1C/C=C\CCCC(=O)O (single isomer, unassigned) [trans,cis-7-[2-(3-Hydroxy-1-octenyl)-5-oxocyclopentyl]-5-hep] [trans,cis-7-[2-(3-Hydroxy-1-octenyl)-5-oxocyclopentyl]-5-heptenoic acid]
- Relative Potency ± S.E.M. [1]: 0.37 ± 0.21 and 0.37 ± 0.14

Molecule: trans-2-(3-Methyl-3-oxooctyl)-5-oxocyclopentaneheptanoic acid
- Relative Potency ± S.E.M. [1]: 0.43 ± 0.14
